The source of these data is patent publication US20130104445A1, “ESSENTIAL OILS AND THEIR COMPOUNDS AS STINK BUG REPELLENTS” (priority 2011, published 2013).

In the test the test system is BMSB adult or nymph antenna. As to the kind of experiment: GC-EAD antennal responses to essential oil headspace (SPME) or synthetic SSB pheromone mixture. Set-up: species or system Halyomorpha halys. The protocol:
Headspace volatiles from several essential oils (1 ml each in a closed 20 ml glass vial) were sampled via Solid-Phase Micro-Extraction (SPME) (CAR/PDMS, 85 μm, Supelco, Bellefonte, Pa.) for 30 sec before GC-EAD and GC-MS analyses.
BMSB nymphs and adults for electrophysiological study were taken from a lab colony originally collected from Pennsylvania, U.S.A., during the overwintering period.
SPME samples of the various essential oils were injected splitless into a Varian CP-3800 GC equipped with a polar column (HP-INNOWAX; 30 m×0.53 mm×1.0 μm film thickness; Agilent Technologies, Wilmington, Del., USA) and a 1:1 effluent splitter that allowed simultaneous flame ionization detection (FID) and electroantennographic detection (EAD) of BMSB adult or nymph antenna to the separated volatile compounds. Helium was used as the carrier gas, and the injector and detector temperatures were 250° C. and 300° C., respectively. Column temperature was 50° C. for 1 min, rising to 240° C. at 10° C./min, and then held for 10 min. The outlet for the EAD was held in a humidified air stream flowing at 0.5 m/sec over the antennal preparation. EAD recordings were made using silver wire-glass capillary electrodes filled with Beadle-Ephrussi Ringer on freshly cut antennae. The antennal signals were stored and analyzed on a PC equipped with a serial IDAC interface box and the program EAD ver. 2.5 (Syntech, Hilversum, The Netherlands). The same GC-EAD recording procedure was also employed on the BMSB antennae against a synthetic mixture of the Spined soldier bug aggregation pheromone components (trans-2-hexenal, benzyl alcohol, and α-terpineol; 200 ng/μl each in hexane, 2 μl injected).
Antennally active compounds (FID peaks) in the SPME samples of essential oils were identified by GC-MS on an HP 6890 GC series coupled with an HP 5973 Mass Selective Detector using the same type of GC column and conditions as described above. Compounds were identified by comparison of retention times with those of authentic standards and with mass spectra of standards.

Where [1] appears, read: from the lemongrass oil, FIG. 4.
The mark [2] stands for this setting: synthetic mixture of SSB aggregation pheromone components, FIG. 12.

Take `C=C1CC[C@@H]2[C@H]1[C@H]1[C@H](C(C)C)CC[C@]12C` [β-bourbernene]: the “EAD response of BMSB antennae” value (from geranium oil, FIG. 10) is on record as “significant (strongly or weakly) EAD-responses”.

In the case of `C=CCc1ccc(O)c(OC)c1` [eugenol], the “EAD response of BMSB antennae” value (from clove oil, FIG. 6) is given as “significant (strongly or weakly) EAD-responses”.

Regarding `COc1ccc(C)cc1` [4-methylanisole], the “EAD response of BMSB antennae” value (from ylang ylang oil, FIG. 7) was “significant (strongly or weakly) EAD-responses”.

Regarding `COC(=O)c1ccccc1` [methyl benzoate], the “EAD response of BMSB antennae” value (from ylang ylang oil, FIG. 7) is reported as “significant (strongly or weakly) EAD-responses”.

As to `CC12CCC(CC1)C(C)(C)O2` [1,8-cineole], the “EAD response of BMSB antennae” value (from rosemary oil, FIG. 8) is listed as “significant (strongly or weakly) EAD-responses”.

For `CC(C)=CCCC(C)CCO` (stereo not drawn) [β-citronellol], the “EAD response of BMSB antennae” value (from geranium oil, FIG. 10) is reported as “significant (strongly or weakly) EAD-responses”.

As for `CC(=O)OCc1ccccc1` [benzyl acetate], the “EAD response of BMSB antennae” value (from ylang ylang oil, FIG. 7) is “significant (strongly or weakly) EAD-responses”.

For the compound `CCCCCC(=O)CCC` [4-nonanone], the “EAD response of BMSB antennae” value under setting [1] is recorded as “weakly”.

With `COC(=O)c1ccccc1O` [methyl salicylate], the “EAD response of BMSB antennae” value (from wintergreen oil, FIG. 9) is given as “significant (strongly or weakly) EAD-responses”.

With l-carvone, the “EAD response of BMSB antennae” value (from spearmint oil, FIG. 5) is recorded as “significant (strongly or weakly) EAD-responses”.

As for P/I-menthones, the “EAD response of BMSB antennae” value is reported as “significant (strongly or weakly) EAD-responses” (from geranium oil, FIG. 10) and “significant (strongly or weakly) EAD-responses” (from pennyroyal oil, FIG. 11).

As for `CC(C)=CCC/C(C)=C\C=O` [Z-citral], the “EAD response of BMSB antennae” value under setting [1] was “strongly responded”.

As for `CCC/C=C/C=O` [trans-2-hexenal], the “EAD response of BMSB antennae” value under setting [2] is listed as “strong antennal responses”.

In the case of `CC1=CCC(C(C)(C)O)CC1` (stereo not drawn) [α-terpineol], under setting [2], the “EAD response of BMSB antennae” value is given as “weak activity”.

As for `CC(C)=CCC/C(C)=C/CO` [geraniol], the “EAD response of BMSB antennae” value (from geranium oil, FIG. 10) was “significant (strongly or weakly) EAD-responses”.

As to `CC(C)=CCC/C(C)=C/C=O` [E-citral], under setting [1], the “EAD response of BMSB antennae” value is on record as “strongly responded”.

cis/trans-rose oxides: the “EAD response of BMSB antennae” value (from geranium oil, FIG. 10) is “significant (strongly or weakly) EAD-responses”.

For the compound `OCc1ccccc1` [benzyl alcohol], under setting [2], the “EAD response of BMSB antennae” value is “strong antennal responses”.

In the case of `CC12CCC(CC1=O)C2(C)C` (stereo not drawn) [camphor], the “EAD response of BMSB antennae” value (from rosemary oil, FIG. 8) is listed as “significant (strongly or weakly) EAD-responses”.

With `CC(C)=C1CC[C@@H](C)CC1=O` [pulegone], where the note is “from pennyroyal oil, FIG. 11”, the “EAD response of BMSB antennae” value was “significant (strongly or weakly) EAD-responses”.
